Reference: US20170368018A1, “USE OF ELLAGIC ACID DIHYDRATE IN PHARMACEUTICAL FORMULATIONS TO REGULATE BLOOD GLUCOSE LEVELS” (HALO LIFE SCIENCE, LLC, priority 2014, published 2017)
“Also recorded” adds a separate entry of the source.

Experiments:
[1] = Estimated saturation in 100% DMSO; format: physicochemical
Procedure: General Procedure. For Examples 2 through 7, all test compounds of interest were initially dissolved in 100% DMSO. Estimated saturation occurred at approximately 4 mM for ellagic acid dihydrate. The saturated solution was diluted 1:10 in 1× PBS; creating a 100× stock solution of 400 μM ellagic acid dihydrate. Working concentrations (1×), 4 μM, and more dilute concentrations of ellagic acid dihydrate were created by 1:10 dilutions into 0.1% DMSO. The resulting six dilutions ranged from 4 μM to 0.04 nM. Dose curves were analyzed using either Harmony software on the Operetta (Perkin Elmer) or Excel (Microsoft) for flow cytometry, which was performed on a BD Accuri (BD Biosciences).

glucose oxidase reaction = glucose oxidase reaction (Aspergillus niger, UniProt P13006); assay: Direct interaction with glucose, glucose oxidase based glucometer on serum; format: biochemical; conditions: incubated with serum at room temperature for five minutes or overnight at 37° C.
Sequence of glucose oxidase reaction (P13006 17-605): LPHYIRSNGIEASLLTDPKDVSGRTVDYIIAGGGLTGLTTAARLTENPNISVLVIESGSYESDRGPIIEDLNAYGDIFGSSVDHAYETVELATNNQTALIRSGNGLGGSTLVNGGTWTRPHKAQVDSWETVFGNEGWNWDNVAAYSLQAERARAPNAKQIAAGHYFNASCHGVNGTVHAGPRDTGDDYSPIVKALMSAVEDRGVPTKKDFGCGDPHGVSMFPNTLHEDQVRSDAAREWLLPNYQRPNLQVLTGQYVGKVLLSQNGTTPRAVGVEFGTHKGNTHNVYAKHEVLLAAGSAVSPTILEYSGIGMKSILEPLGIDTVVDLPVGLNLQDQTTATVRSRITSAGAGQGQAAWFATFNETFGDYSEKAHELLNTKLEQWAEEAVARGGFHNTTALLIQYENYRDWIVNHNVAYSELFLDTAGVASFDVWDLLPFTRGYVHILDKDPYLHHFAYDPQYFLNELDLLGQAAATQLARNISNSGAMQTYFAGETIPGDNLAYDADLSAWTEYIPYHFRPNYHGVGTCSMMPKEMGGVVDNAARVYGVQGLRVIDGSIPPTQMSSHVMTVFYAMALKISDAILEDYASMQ
Procedure: Ellagic acid dihydrate was analyzed for direct interaction with glucose. A glucose oxidase based glucometer was used to measure serum glucose. Ellagic acid dihydrate was incubated with serum at room temperature for five minutes or overnight at 37° C. Upon testing the mixture, no inhibition of the glucose oxidase reaction was observed. Ellagic acid dihydrate is not believed to directly interact with glucose.

MEF cells [2] = assay: Glucose uptake, 2-NBDG labeling, flow cytometry, MEFs; format: cell-based, mouse
Procedure: Cellular assays were performed using mouse myoblast C2C12 cells and MEF cells. […] Increased glucose uptake was indicated as increasing signal of 2-NBDG ([…]) in cells. Glucose uptake assays were carried out in a final incubation volume of 50 μl consisting of, 2-NBDG), (100 μM) in 1× Phosphate Buffered Saline w/Ca+, Mg+ (PBS++). The same buffer was used for washing cells. Insulin was used as a positive control. All testing compounds were prepared in […] and diluted 1:100 for a final concentration of 0.1% DMSO (vehicle). Cells were culture to 70-90% confluence and then washed twice with PBS++. Cells were incubated for 30 minutes at 37° C. in PBS++. Nuclear stain, HCS CellMask stain (blue, Invitrogen), and/or testing compounds (ellagic acid dihydrate, insulin, or vehicle) were added. Cells were incubated for 30 min at 37° C. Cells were washed twice with PBS++and incubated with 2-NBDG for 10 minutes. Cells were washed thrice with PBS++and then imaged in PBS++. Alternatively, the final PBS wash was removed and cells were incubated with Accutase (Invitrogen) for 10 min at 37° C., neutralized with 10% FBS in 1× PBS, and analyzed by flow cytometry. An additional experiment was performed to measure glucose uptake in C2C12 cells exposed to metformin, insulin and ellagic acid dihydrate 2 (batch 2). FIG. 5C. Glucose uptake in ellagic acid dihydrate treated cell culture was measured and compared to glucose uptake under insulin or ellagic acid treatment. […] Flow cytometry results were run in triplicate with 1000 cells per batch.

MEF cells [3] = assay: Glucose uptake, 2-NBDG labeling, high-content imaging (Operetta), MEFs; format: cell-based, mouse
Procedure: Increased glucose uptake was indicated as increasing signal of 2-NBDG ([…]) in cells. Glucose uptake assays were carried out in a final incubation volume of 50 μl consisting of, 2-NBDG), (100 μM) in 1× Phosphate Buffered Saline w/Ca+, Mg+ (PBS++). The same buffer was used for washing cells. Insulin was used as a positive control. All testing compounds were prepared in 10% DMSO and diluted 1:100 for a final concentration of 0.1% DMSO (vehicle). Cells were culture to 70-90% confluence and then washed twice with PBS++. Cells were incubated for 30 minutes at 37° C. in PBS++. Nuclear stain, HCS CellMask stain (blue, Invitrogen), and/or testing compounds (ellagic acid dihydrate, insulin, or vehicle) were added. Cells were incubated for 30 min at 37° C. Cells were washed twice with PBS++and incubated with 2-NBDG for 10 minutes. Cells were washed thrice with PBS++and then imaged in PBS++. Alternatively, the final PBS wash was removed and cells were incubated with Accutase (Invitrogen) for 10 min at 37° C., neutralized with 10% FBS in 1× PBS, and analyzed by flow cytometry. An additional experiment was performed to measure glucose uptake in C2C12 cells exposed to metformin, insulin and ellagic acid dihydrate 2 (batch 2). FIG. 5C. Glucose uptake in ellagic acid dihydrate treated cell culture was measured and compared to glucose uptake under insulin or ellagic acid treatment. […] Flow cytometry results were run in triplicate with 1000 cells per batch.

[4] = test system: AKT / Phos AKT in C2C12 cells; assay: AKT:phos AKT ratio by immunocytochemistry, high-content imaging; format: cell-based, mouse; conditions: C2C12, serum starved 1 hr, treated 30 minutes, 4 nM-4 μM, FIG. 8
Procedure: Stimulation of AKT pathways and MAPK pathways in ellagic acid dihydrate, metformin, and insulin treated cell cultures was performed. Insulin stimulates glucose uptake into cells by increasing GLUT4 activation, and AKT, specifically phos-AKT, signaling alters GLUT4 translocation. […] Cellular assays were performed using mouse myoblast C2C12 cells. […] Serum starved cells (1 hr) were treated for 30 minutes with each of the tested compounds.

For `O.O.O=c1oc2c(O)c(O)cc3c(=O)oc4c(O)c(O)cc1c4c23` [ellagic acid dihydrate], the Estimated saturation [1] was “approximately 4 mM”, the “inhibition of the glucose oxidase reaction” value (glucose oxidase reaction) was “no inhibition” and the “increased glucose uptake relative to vehicle treated cells” value (MEF cells [2]; 400 nM exposure, fibroblasts, FIG. 4B) was 47%. For the same compound, the “dose effect for increasing glucose uptake” value (MEF cells [2]; MEFs, flow cytometry, 4 μM-0.04 nM) was “showed a dose effect”, the “increase in glucose uptake compared with ellagic acid or insulin treatment” value (MEF cells [2]; MEFs, flow cytometry, Example 5, FIG. 6) was “significantly greater increase in glucose uptake” and the “glucose uptake (2-NBDG signal) relative to vehicle” value (MEF cells [2]; MEFs, flow cytometry, FIG. 4A) was “significantly greater than vehicle treated”. For the same compound, the “glucose uptake relative to insulin” value (MEF cells [2]; fibroblasts, at most concentrations tested, significant at 4 nM-4 μM, dihydrate) was “significantly more glucose uptake relative to insulin; also recorded: exceeded the uptake induced by insulin”, the “glucose uptake per unit dose” value (MEF cells [2]; in vitro conditions, summary statement) was “increase in glucose uptake per unit dose” and the “dose effect for increasing glucose uptake” value (MEF cells [3]) was “showed a dose effect”. For the same compound, the “glucose uptake (signal of 2-NBDG) in comparison to vehicle” value (MEF cells [3]) was “showed an increase in glucose uptake”, the “glucose uptake (2-NBDG signal) relative to vehicle treated or Insulin treated cells” value (MEF cells [3]; data not shown) was “significantly greater” and the “AKT:Phos AKT ratio (log2 scale) relative to vehicle treated cells” value [4] was “increase in AKT relative to Phos-AKT signal”.
